Several values for one entry are separate records, joined by “and”; a condition that tells them apart may be missing. Identical values can stand only once.
Assays:
[1] = Metabolic stability in human liver microsomes; format: in vitro ADME; details: pH 7.4, intrinsic clearance
Experimental: Human liver microsomes were purchased from BioIVT. Metabolic stability was determined in 0.5 mg/mL human liver microsomes at a compound concentration of 1 µM in 100 mM KPO4 buffer pH 7.4 in a total incubation volume of 500 µL. The reaction was initiated by the addition of 1 mM NADPH. At various incubation times, i.e., at 0, 5, 10, 20, 40, and 60 min, a sample was withdrawn from the incubation and the reaction was terminated by the addition of cold acetonitrile with warfarin as an internal standard. The amount of parent compound remaining was analyzed by liquid chromatography coupled to triple quadrupole mass spectrometry (LC-MS/MS).

OGG1-GFP in U2OS cells = molecular target: T1, OGG1-GFP in U2OS cells (Homo sapiens, UniProt O15527); test: Laser microirradiation assay (OGG1-GFP recruitment to DNA damage sites); format: cell-based; details: 10uM, single-cell replicate traces
T1 construct: expressed in transfected cells
T1 sequence (O15527 whole entry): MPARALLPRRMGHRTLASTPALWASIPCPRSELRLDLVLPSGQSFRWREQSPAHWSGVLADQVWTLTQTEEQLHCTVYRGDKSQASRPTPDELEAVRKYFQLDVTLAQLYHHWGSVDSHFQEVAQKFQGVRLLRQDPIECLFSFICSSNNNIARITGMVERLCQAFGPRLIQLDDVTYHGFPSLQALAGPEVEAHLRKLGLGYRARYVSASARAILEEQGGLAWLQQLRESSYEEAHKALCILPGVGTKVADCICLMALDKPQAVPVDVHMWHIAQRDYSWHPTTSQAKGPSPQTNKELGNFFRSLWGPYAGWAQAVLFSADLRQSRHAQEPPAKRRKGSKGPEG

[2] = system: NF-κB activation in HEK293T pGF NF-κB cells; test: TNF-α induced NF-κB activation assay; format: cell-based
Experimental: The inhibition of TNF-α induced NF-κB activation was measured in HEK293T cells transfected with the pGreenfire NF-κB plasmid. This is a plasmid that has NF-κB response elements (TRE) coupled to GFP and luciferase expression. When the NF-κB is activated by TNF-α, it binds to the TRE and induces GFP expression, and the fluorescence can be measured in a plate reader. The cells were authenticated with STR profiling, frozen down and these stocks were used in experiments. The HEK293T pGF NF-κB cells were kept in DMEM with 5% FBS and 1% P/S but, when seeded for the assay the medium was changed to DMEM FluoroBrite with 1% dialyzed FBS. All cell culture reagents were purchased from Thermo Fisher Scientific. Compounds were nano-dispensed (Echo acoustic dispenser) in 96-well, black/clear, assay plates (Corning #3904), duplicate plates, in 8-points dose-response curves, 1:2 dilutions, with DMSO compensation (0.3% DMSO). Cells were seeded at 30000 cells/well in medium containing 10 ng/mL of TNF-α (Sigma-Aldrich), except negative control wells which only contained cells in medium. Cells were cultured for 24 hours in a humidified incubator at 37 °C with 5% CO2 after which the GFP fluorescence was measured in a Sense plate reader (Hidex) with ex485/em535. The RFU data from the duplicate plates were combined to calculate % inhibition of NF-κB activation and IC50-values were calculated using XLfit (IDBS). In parallel with the NF-κB assay, a CellTiterGlo (Promega) cell viability assay was run to exclude compounds affecting cell viability. Compounds were nano-dispensed (Echo acoustic dispenser) in assay plates in 11-points dose-response curves, 1:3 dilutions, without DMSO compensation, with duplicates on the same plate. Cells were seeded at 7500 cells/well in 25 µL medium (DMEM FluoroBrite with 1% dialyzed FBS) containing 10 ng/mL TNF-α and cultured for 24 hours, with column 24 containing only culture medium. After equilibration to room temperature, the CellTiterGlo reagents were mixed and 25 µL/well were added to the cell plate. After 2 min mixing of the plate on an orbital shaker, the plate was incubated for 10 min at room temperature followed by luminescence reading in Sense. The cell viability was calculated compared to untreated control wells and the EC50 values were determined in XLfit (IDBS). […]

[3] = Caco-2 cell permeability assay; format: in vitro ADME; details: human, Caco-2, pH 7.4
Experimental: Prior to the experiment a drug solution of 10 µM was prepared and warmed to 37 °C. The Caco-2 filters were washed with pre-warmed HBSS prior to the experiment, and thereafter the experiment was started by applying the donor solution on the apical or basolateral side. The transport experiments were carried out at pH 7.4 in both the apical and basolateral chamber. The experiments were performed at 37 °C and with a stirring rate of 500 rpm. The receiver compartment was sampled at 15, 30, and 60 min, and at 60 min also a final sample from the donor chamber was taken to calculate the mass balance of the compound. The samples (100 µL) were transferred to a 96-well plate containing 100 µL methanol and Warfarin as IS and was sealed until analyzed by liquid chromatography coupled to triple quadrupole mass spectrometry (LC-MS/MS).

Thermodynamic solubility = format: physicochemical; details: thermodynamic from solid

| Compound | microsomal CLint at 1 µM [1] [µL/min/mg] | OGG1-GFP recruitment to DNA damage sites, intensity normalised to time 0 (Figure3E) (OGG1-GFP in U2OS cells; time 14 s) | OGG1-GFP recruitment to DNA damage sites, intensity normalised to time 0 (Figure3E) (OGG1-GFP in U2OS cells; time 16 s) | OGG1-GFP recruitment to DNA damage sites, intensity normalised to time 0 (Figure3E) (OGG1-GFP in U2OS cells; time 18 s) | OGG1-GFP recruitment to DNA damage sites, intensity normalised to time 0 (Figure3E) (OGG1-GFP in U2OS cells; time 20 s) | OGG1-GFP recruitment to DNA damage sites, intensity normalised to time 0 (Figure3E) (OGG1-GFP in U2OS cells; time 22 s) | OGG1-GFP recruitment to DNA damage sites, intensity normalised to time 0 (Figure3E) (OGG1-GFP in U2OS cells; time 24 s) | OGG1-GFP recruitment to DNA damage sites, intensity normalised to time 0 (Figure3E) (OGG1-GFP in U2OS cells; time 26 s) | % inhibition of NF-κB activation (Figure3F) ([2]; Concentration 2.34e-7, single replicates) | % inhibition of NF-κB activation (Figure3F) ([2]; Concentration 4.69e-7, single replicates) | % inhibition of NF-κB activation (Figure3F) ([2]; Concentration 9.38e-7, single replicates) | % inhibition of NF-κB activation (Figure3F) ([2]; Concentration 1.88e-6, single replicates) | % inhibition of NF-κB activation (Figure3F) ([2]; Concentration 3.75e-6, single replicates) | % inhibition of NF-κB activation (Figure3F) ([2]; Concentration 7.5e-6, single replicates) | % inhibition of NF-κB activation (Figure3F) ([2]; Concentration 1.5e-5, single replicates) | % inhibition of NF-κB activation (Figure3F) ([2]; Concentration 3e-5, single replicates) | Papp A→B at 60 min, 10 µM ([3]; read-out: Papp AB (10–6 cm/s)) [×10⁻⁶ cm/s] | Papp B→A at 60 min, 10 µM ([3]; read-out: Papp BA (10–6 cm/s)) [×10⁻⁶ cm/s] | solubility thermodynamic (Thermodynamic solubility) [µM] | EC50 ([2]; Homo sapiens, HEK-293T, NFκB activation assay, ± SD, read-out: pEC50 (converted)) [µM] |
| --- | --- | --- | --- | --- | --- | --- | --- | --- | --- | --- | --- | --- | --- | --- | --- | --- | --- | --- | --- | --- |
| O=C(Nc1ccc(I)cc1)N1CCC(n2c(=O)[nH]c3c(Br)cccc32)CC1 [TH5487, reference compound] | 4.6 | 1.22 (3×) and 1.25 and 1.18 (2×) and 1.31 and 1.24 and 1.32 (2×) and 1.15 and 1.27 and 1.19 (2×) and 1.28 | 1.24 and 1.28 and 1.23 (2×) and 1.18 (2×) and 1.34 and 1.25 and 1.32 and 1.19 and 1.29 and 1.2 and 1.22 and 1.31 and 1.3 | 1.25 (2×) and 1.31 (2×) and 1.24 and 1.21 and 1.35 (2×) and 1.26 and 1.18 and 1.2 and 1.3 and 1.22 and 1.23 and 1.33 | 1.26 and 1.31 (2×) and 1.24 (3×) and 1.2 and 1.35 and 1.29 and 1.37 and 1.16 and 1.19 and 1.27 and 1.36 and 1.33 | 1.27 and 1.32 and 1.28 (3×) and 1.2 and 1.36 and 1.37 (2×) and 1.18 and 1.22 (2×) and 1.34 and 1.25 and 1.35 | 1.29 (2×) and 1.32 and 1.25 (2×) and 1.21 and 1.37 (2×) and 1.39 and 1.18 and 1.22 and 1.35 and 1.3 and 1.24 and 1.36 | 1.29 (2×) and 1.32 and 1.28 and 1.21 and 1.38 (2×) and 1.4 and 1.19 and 1.22 | 18.9% and 16.9% and 37.3% and 20.7% and 19.4% and 19.3% | 18.1% and 35.6% and 25.7% and 21.2% and 9.2% | 12.4% and 13.4% and 36.2% and 34.5% and 36.5% and 30% | 21% and 33.9% and 49.1% and 39.2% and 40.4% and 37.2% | 58.6% and 64.7% and 55% and 52% and 44.1% and 44% | 81.2% and 86.7% and 75.9% and 78.4% and 98.7% and 81.3% | 101.6% and 99.3% (2×) and 95.7% and 105.1% and 123.3% | 104.2% and 102% and 99.9% and 101.1% and 123.3% and 102.7% | 4.16 | 4.83 | < 1 |  |
| Nc1nn(-c2ccc(CC(=O)Nc3noc4c3CCCC4)cc2)c2ccccc12 [compound 11] |  |  |  |  |  |  |  |  |  |  |  |  |  |  |  |  |  |  |  | 10 |

From article PMC11836371, “Virtual fragment screening for DNA repair inhibitors in vast chemical space” (Nature Communications, 2025)
